Source: ChEMBL document CHEMBL1201862, “PubChem BioAssay data set” (2004)
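1) Cells in 96-well plates. 2) Compound, 48 h, 5 concentrations. 3) Linear interpolation between surrounding doses. 4) Unreached endpoint = highest concentration. GI50 is the concentration that inhibits growth by half.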 Active and inactive are the calls of the source. No stated cut-off is given here; in the data, active = GI50 up to about 1.1 µM and inactive = higher.

How the values were obtained:
Assay in all cases: NCI anticancer screen, dose series, 48 h
HCC 2998 = system: HCC 2998
CCRF-CEM = system: CCRF-CEM
HCT-116 = system: HCT-116
SNB-75 = system: SNB-75
OVCAR-5 = system: OVCAR-5
U-251 = system: U-251
TK-10 = system: TK-10
CAKI-1 = system: CAKI-1
HOP-62 = system: HOP-62
MCF7 = system: MCF7
SN12C = system: SN12C
K562 = system: K562
HCT-15 = system: HCT-15
RPMI-8226 = system: RPMI-8226
MDA-MB-231 = system: MDA-MB-231
NCI-H23 = system: NCI-H23
SNB-19 = system: SNB-19
NCI-H460 = system: NCI-H460
Hs-578T = system: Hs-578T

Row | SMILES | GI50 (HCC 2998) | GI50 (CCRF-CEM) | GI50 (HCT-116) | GI50 (SNB-75) | GI50 (OVCAR-5) | GI50 (U-251) | GI50 (TK-10) | GI50 (CAKI-1) | GI50 (HOP-62) | GI50 (MCF7) | GI50 (SN12C) | GI50 (K562) | GI50 (HCT-15) | GI50 (RPMI-8226) | GI50 (MDA-MB-231) | GI50 (NCI-H23) | GI50 (SNB-19) | GI50 (NCI-H460) | GI50 (Hs-578T)
1 | CCN(CC)CCN1c2ccccc2Sc2ccc3ccccc3c21 | 2.23 µM (inactive) | 2.92 µM (inactive) | 10.8 µM (inactive) | 7.06 µM (inactive) | 9.1 µM (inactive) | 9.38 µM (inactive) | 1.67 µM (inactive) | 8.89 µM (inactive) | 14.9 µM (inactive) | 9.27 µM (inactive) | 11.7 µM (inactive) | 4.66 µM (inactive) | 6.9 µM | 3.33 µM (inactive) | 6.03 µM (inactive) | 15.5 µM (inactive) | 15.3 µM (inactive) | 2.07 µM (inactive) | 13.5 µM (inactive)
2 | O=C(NCCCCCCCN1CCCCCCC1)C(C1CCCCC1)C1CCCCC1 | 2.76 µM (inactive) | 6.97 µM (inactive) | 7.66 µM (inactive) | 9.79 µM (inactive) | 11 µM (inactive) | 8.51 µM (inactive) | 12.9 µM (inactive) | 7.14 µM (inactive) | 3.97 µM (inactive) | 7.16 µM (inactive) | 13.1 µM (inactive) | 2.77 µM (inactive) | 4.07 µM | 2.56 µM (inactive) | 8.51 µM (inactive) | 12.9 µM (inactive) | 14.3 µM (inactive) | 9.1 µM (inactive) | 21.7 µM (inactive)
3 | CC(C)(C)C1=CC(=C(c2ccc(-c3c4nc(c(-c5ccc(C(=C6C=C(C(C)(C)C)C(=O)C(C(C)(C)C)=C6)c6cc(C(C)(C)C)c(O)c(C(C)(C)C)c6)cc5)c5ccc([nH]5)c(-c5ccc(C(=C6C=C(C(C)(C)C)C(=O)C(C(C)(C)C)=C6)c6cc(C(C)(C)C)c(O)c(C(C)(C)C)c6)cc5)c5nc(c(-c6ccc(C(=C7C=C(C(C)(C)C)C(=O)C(C(C)(C)C)=C7)c7cc(C(C)(C)C)c(O)c(C(C)(C)C)c7)cc6)c6ccc3[nH]6)C=C5)C=C4)cc2)c2cc(C(C)(C)C)c(O)c(C(C)(C)C)c2)C=C(C(C)(C)C)C1=O | > 100 µM (inactive) | > 100 µM (inactive) | > 100 µM (inactive) | > 100 µM (inactive) | > 100 µM (inactive) | > 100 µM (inactive) | > 100 µM (inactive) | > 100 µM (inactive) | > 100 µM (inactive) | > 100 µM (inactive) | > 100 µM (inactive) | > 100 µM (inactive) | > 100 µM | > 100 µM (inactive) | > 100 µM (inactive) | > 100 µM (inactive) | > 100 µM (inactive) | > 100 µM (inactive) | > 100 µM (inactive)
4 | COC1(OC)C=CC2C1C1C=CC2C1(OC)OC (stereo unspecified) | > 100 µM (inactive) | > 100 µM (inactive) | > 100 µM (inactive) | > 100 µM (inactive) | > 100 µM (inactive) | > 100 µM (inactive) | > 100 µM (inactive) | > 100 µM (inactive) | > 100 µM (inactive) | > 100 µM (inactive) | > 100 µM (inactive) | > 100 µM (inactive) | > 100 µM | > 100 µM (inactive) | > 100 µM (inactive) | > 100 µM (inactive) | > 100 µM (inactive) | > 100 µM (inactive) | > 100 µM (inactive)
5 | O=C(CNc1c(Cl)cccc1Cl)NC1C=Cc2ccc(S(=O)(=O)Nc3c(Cl)cccc3Cl)cc2C1=O (stereo unspecified) | 67.5 µM (inactive) | 53.2 µM (inactive) | > 100 µM (inactive) | 16.7 µM (inactive) | 47.1 µM (inactive) | > 100 µM (inactive) | > 100 µM (inactive) | 47.5 µM (inactive) | 41.4 µM (inactive) | > 100 µM (inactive) | > 100 µM (inactive) | > 100 µM (inactive) | 79.1 µM | > 100 µM (inactive) | 51.3 µM (inactive) | > 100 µM (inactive) | > 100 µM (inactive) | > 100 µM (inactive) | 6.71 µM (inactive)
6 | Nc1ccc(Oc2ccc(C34CC5CC(C3)CC(c3ccc(Oc6ccc(N)cc6)cc3)(C5)C4)cc2)cc1 | 4.9 µM (inactive) | > 22 µM (inactive) | 7.55 µM (inactive) | 24 µM (inactive) | 18.6 µM (inactive) | 5.43 µM (inactive) | 10.3 µM (inactive) | 13.5 µM (inactive) | 17.5 µM (inactive) | 4.81 µM (inactive) | 12.5 µM (inactive) | 15.8 µM (inactive) | 10.8 µM | 4.14 µM (inactive) | 11.1 µM (inactive) | 7.8 µM (inactive) | 12 µM (inactive) | 10.7 µM (inactive) | 20.2 µM (inactive)
7 | O=C1C[C@H](CCC(=O)OCc2ccccc2)NC(=O)C[C@H](CCC(=O)OCc2ccccc2)NC(=O)C[C@H](CCC(=O)OCc2ccccc2)N1 | > 100 µM (inactive) | > 100 µM (inactive) | 26.2 µM (inactive) | 2.22 µM (inactive) | > 100 µM (inactive) | 5.24 µM (inactive) | 6.24 µM (inactive) | > 100 µM (inactive) | 16.2 µM (inactive) | > 100 µM (inactive) | > 100 µM (inactive) | > 100 µM (inactive) | > 100 µM | > 100 µM (inactive) | 14.2 µM (inactive) | 52.8 µM (inactive) | 9.98 µM (inactive) | > 100 µM (inactive) | 5.24 µM (inactive)
8 | NC(=O)NNCc1c(-c2ccccc2)no[n+]1[O-] | > 100 µM (inactive) | > 100 µM (inactive) | > 100 µM (inactive) | > 100 µM (inactive) | > 100 µM (inactive) | > 100 µM (inactive) | > 100 µM (inactive) | > 100 µM (inactive) | > 100 µM (inactive) | > 100 µM (inactive) | > 100 µM (inactive) | > 100 µM (inactive) | > 100 µM | > 100 µM (inactive) | > 100 µM (inactive) | > 100 µM (inactive) | > 100 µM (inactive) | > 100 µM (inactive) | > 100 µM (inactive)
9 | O=C(NC(Cc1c[nH]c2ccccc12)C(=O)Nc1ccc(Br)cc1)OCc1ccccc1 (stereo unspecified) | 11 µM (inactive) | 3.6 µM (inactive) | 9.82 µM (inactive) | 14.7 µM (inactive) | 17.2 µM (inactive) | 12 µM (inactive) | 14.9 µM (inactive) | 5.27 µM (inactive) | 11 µM (inactive) | 10.4 µM (inactive) | 9.46 µM (inactive) | 6.82 µM (inactive) | 11.1 µM | 6.38 µM (inactive) | 10.2 µM (inactive) | 11.8 µM (inactive) | 21.1 µM (inactive) | 6.22 µM (inactive) | 18.9 µM (inactive)
10 | O=S(=O)(O)c1cc(O)c(/N=N\C2S(=O)(=O)OCCOS2(=O)=O)c2ccccc12 | > 100 µM (inactive) | 28.8 µM (inactive) | > 100 µM (inactive) | 25.6 µM (inactive) | > 100 µM (inactive) | 71.8 µM (inactive) | > 100 µM (inactive) | > 100 µM (inactive) | 43.6 µM (inactive) | > 100 µM (inactive) | > 100 µM (inactive) | > 100 µM (inactive) | > 100 µM | > 100 µM (inactive) | > 100 µM (inactive) | > 100 µM (inactive) | 56.5 µM (inactive) | 23.4 µM (inactive) | > 100 µM (inactive)
11 | CCCC(=O)Nc1cc(/C=C/C(=O)N2C[C@H]3C[C@@]34C2=CC(=O)c2[nH]cc(C)c24)n(C)c1 | < 0.0025 µM (active) | < 0.0025 µM (active) | < 0.0025 µM (active) | < 0.0025 µM (active) | < 0.0025 µM (active) | < 0.0025 µM (active) | < 0.0025 µM (active) | < 0.0025 µM (active) | < 0.0025 µM (active) | < 0.0025 µM (active) | < 0.0025 µM (active) | < 0.0025 µM (active) | 0.0103 µM | 0.0161 µM (active) | < 0.0025 µM (active) | < 0.0025 µM (active) | 0.00593 µM (active) | < 0.0025 µM (active) | 0.00273 µM (active)
12 | CC(C)(C)N/C(N)=N/C#N | > 100 µM (inactive) | > 100 µM (inactive) | > 100 µM (inactive) | > 100 µM (inactive) | > 100 µM (inactive) | > 100 µM (inactive) | > 100 µM (inactive) | > 100 µM (inactive) | > 100 µM (inactive) | > 100 µM (inactive) | > 100 µM (inactive) | > 100 µM (inactive) | > 100 µM | > 100 µM (inactive) | > 100 µM (inactive) | > 100 µM (inactive) | > 100 µM (inactive) | > 100 µM (inactive) | > 100 µM (inactive)
13 | COC(=O)C(Cc1ccccc1)NC(=O)CCCNC(=O)OCc1ccccc1 (stereo unspecified) | > 100 µM (inactive) | 41 µM (inactive) | > 100 µM (inactive) | > 100 µM (inactive) | > 100 µM (inactive) | > 100 µM (inactive) | > 100 µM (inactive) | > 100 µM (inactive) | > 100 µM (inactive) | > 100 µM (inactive) | > 100 µM (inactive) | > 100 µM (inactive) | > 100 µM | 87.3 µM (inactive) | > 100 µM (inactive) | > 100 µM (inactive) | > 100 µM (inactive) | > 100 µM (inactive) | > 100 µM (inactive)
14 | COc1cc2c(c(OC)c1OC)-c1ccc(SC)c(=O)cc1[C@@H](NC(=O)C(F)(F)F)CC2 | < 0.01 µM (active) | < 0.01 µM (active) | < 0.01 µM (active) | 0.019 µM (active) | 0.259 µM (active) | < 0.01 µM (active) | 8.63 µM (inactive) | < 0.0139 µM (active) | < 0.0103 µM (active) | < 0.01 µM (active) | < 0.01 µM (active) | < 0.01 µM (active) | < 0.01 µM | < 0.01 µM (active) | < 0.01 µM (active) | < 0.01 µM (active) | < 0.01 µM (active) | < 0.01 µM (active) | < 0.01 µM (active)
